Test results: US5686486A, “4-hydroxy-benzopyran-2-ones and 4-hydroxy-cycloalkyl[b]pyran-2-ones useful to treat retroviral infections” (priority 1995, dated 1997)
Several values for one entry are separate records, joined by “and”; a condition that tells them apart may be missing. Equal values may be shown once. Read-outs that look alike come from different tables or passages of the source.

Target: HIV-1 protease (Human immunodeficiency virus type 1 group M subtype B, UniProt P04585)
Experiment: biochemical
Settings: for inhibition at 1 µM: read-out: HIV-1 Protease % Inhib, dose 1.000 uM; for inhibition at 10 µM: read-out: HIV-1 Protease % Inhib, dose 10.000 uM; for inhibition at 100 µM: read-out: HIV-1 Protease % Inhib, dose 100.000 uM
Protocol: The HIV protease screening assay is based on fluorescently labeled substrate which can be resolved from nonlabeled cleavage product using special beads coated with streptavidin. The substrate is biotinylated at the amino terminal arginine and fluorescently labeled with fluorescein isothiocynate (FITC) at the carboxyl terminal lysine. This assay has been employed to detect novel, nonpeptidic inhibitors of HIV-1 protease. Substrate (20 μl of 0.2 μM), sample (10 μl of desired concentration), and enzyme (10 μl of 0.1 μM) are added to a 96 well pandex plate. The assay is run in 0.1M sodium acetate buffer at pH 5.5 in the presence of 1.0M sodium chloride and 0.05% NP-40 with incubated in the dark for one hour at room temperature. Strepavidin coated polystyrene beads {40 μl of 0.1% (w/v)} are added and the plate is incubated in the dark for an additional half hour. The labeled cleavage product is separated from the unreacted substrate via filtration and is read on the Idexx screen machine. The data are analyzed by appropriate computer algorithms to ascertain percent inhibition values.

Row | IC50 (read-out: HIV-1 Protease IC50) | Structure (SMILES) | HIV-1 Protease % Inhib (dose 100.000 uM) | inhibition at 1 µM [%] | inhibition at 10 µM [%] | inhibition at 100 µM [%] | HIV-1 Protease % Inhib (dose 10.000 uM) [%] | IC50 (HIV-1 Protease IC50) [µM]
1 | – | CCC(c1ccc(OC)cc1)c1c(O)c2ccccc2oc1=O (stereo not shown) [Example 94, Coumarin, 4-hydroxy-3-[1-(4-methoxyphenyl)propyl]-] | 82.45% | < 10 | 44.7 | 96.4 | – | –
2 | – | CCC(c1ccccc1)c1c(O)c2cc(O)ccc2oc1=O (stereo not shown) [Example 95, Coumarin, 4,6-dihydroxy-3-(1-phenylpropyl)-] | – | < 10 | 34.7 | 79.6 | – | –
3 | – | CCC(c1ccccc1)c1c(O)c2cc(N)ccc2oc1=O (stereo not shown) [Example 96, Coumarin, 6-amino-4-hydroxy-3-(1-phenylpropyl)-] | – | < 10 | < 10 | 48.7 | – | –
4 | – | CCCC(c1cccc(C)c1)c1c(O)c2ccccc2oc1=O (stereo not shown) [Example 97, Coumarin, 4-hydroxy-3-[1-(3-methylphenyl)butyl]-] | – | < 10 | 29.9 | 78.2 | – | –
5 | – | CCC(c1cccc(C#N)c1)c1c(O)c2ccccc2oc1=O (stereo not shown) [Example 98, Coumarin, 3-[1-(3-cyanophenyl)propyl]-4-hydroxy-] | – | < 10 | < 10 | 74.5 | – | –
6 | – | CCC(c1ccccc1)c1c(O)c2ccc3ccccc3c2oc1=O (stereo not shown) [Example 99, 2H-Naphtho[1,2-b]pyran-2-one, 4-hydroxy-3-(1-phenylpropyl)-] | – | < 10 | < 10 | 43.3 | – | –
7 | – | CCC(c1ccc(OCC(O)CO)cc1)c1c(O)c2ccccc2oc1=O (stereo not shown) [Example 100, Coumarin, 4-hydroxy-3-[1-[4-(2,3-dihydroxy)propoxyphenyl]propyl]-] | 40.3% | < 10 | 12.3 | 53 | < 10 | –
8 | – | CC(c1cccc(C#N)c1)c1c(O)c2ccccc2oc1=O (stereo not shown) [Example 101, Coumarin, 3-[1-(3-Cyanophenyl)ethyl]-4-hydroxy-] | – | < 10 | < 10 | 39.2 | – | –
9 | – | CCC(c1cccc(OC)c1)c1c(O)c2ccccc2oc1=O (stereo not shown) [Example 102, Coumarin, 4-hydroxy-3-[1-(3-methoxyphenyl)propyl]-] | 75.63% | < 10 | 24 | 78.8 | – | –
10 | – | CCC(c1cccc(O)c1)c1c(O)c2ccccc2oc1=O (stereo not shown) [Example 103, Coumarin, 4-hydroxy-3-[1-(3-hydroxyphenyl)propyl]-] | 87.29% and 73.35% | < 10 | 25.7 | 80.9 | – | –
11 | – | O=c1oc2ccccc2c(O)c1C(C1CC1)C1CC1 [Example 104, 3-(dicyclopropyl)methyl-4-hydroxycoumarin] | – | 12.2 | 68.7 | 106 | – | 6.74
12 | 4.88 µM and 3.88 µM | CCC(c1ccccc1)c1c(O)c2ccccc2oc1=O (stereo not shown) [Example 105, 4-hydroxy-3-(1-phenylpropyl)-coumarin] | – | – | – | – | – | –
13 | – | CCC(=O)c1ccc(C(CC)c2c(O)c3ccccc3oc2=O)cc1 (stereo not shown) [Example 106, Coumarin, 4-hydroxy-3-[1-(4-propionylphenyl)propyl]-] | – | < 10 | 11.7 | 71 | – | –
14 | – | CCC(c1ccccc1)c1c(O)c2c(oc1=O)CCCCCC2 (stereo not shown) [Example 108, 5,6,7,8,9,10-Hexahydro-4-hydroxy-3-(1-phenylpropyl)-2H-cycloocta[b]pyran-2-one] | – | 72.6 | 95.5 | 94.2 | – | –
15 | – | CCC(c1ccccc1)c1c(O)c2c(oc1=O)CCCCC2 (stereo not shown) [Example 110, 6,7,8,9-Tetrahydro-4-hydroxy-3-(1-phenylpropyl)-cyclohepta[b]pyran-2(5H)-one] | – | 16.9 | 73.8 | 99.9 | – | –
